# Measurements reported in BindingDB's records for doi:10.3109/14756366.2010.491794 (Nanchang University School of Pharmaceutical Science, 2011).
# Target: Cannabinoid receptor 1 (Cricetulus griseus, UniProt Q99NU1)
# Assay: CB1 Receptor Binding Assay (In Vitro)
# Method: The target compounds were evaluated using a binding assay towards the CB1 receptor expressed on the membranes of Chinese hamster ovarian (CHO) cells. […] The potent synthetic cannabinoid agonist, [3H]-CP55940, was used as a radioligand (Figure 1). The CHO cells were incubated in 96-well microtiter plates. Various concentrations of the synthesised cannabinoid ligands were added and incubated for 10 min at 37°C. […] The cells were lysed and scintillation fluid was added. […] There were three parallels in the tests.
# Sequence of Cannabinoid receptor 1 (Q99NU1 whole entry): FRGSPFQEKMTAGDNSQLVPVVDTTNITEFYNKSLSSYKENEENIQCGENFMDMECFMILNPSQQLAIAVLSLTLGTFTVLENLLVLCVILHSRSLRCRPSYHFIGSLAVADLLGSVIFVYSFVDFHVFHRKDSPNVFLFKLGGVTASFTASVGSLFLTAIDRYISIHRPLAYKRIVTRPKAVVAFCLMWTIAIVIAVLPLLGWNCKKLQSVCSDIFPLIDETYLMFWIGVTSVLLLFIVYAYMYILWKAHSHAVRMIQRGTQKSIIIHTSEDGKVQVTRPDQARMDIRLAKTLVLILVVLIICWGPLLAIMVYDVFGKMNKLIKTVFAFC
row,Structure (SMILES),IC50 [nM]
1,"Cc1c(C(=O)NCCCN2CCCC2)nn(-c2ccc(Cl)cc2Cl)c1-c1ccc(Cl)cc1 [5-(4-Chlorophenyl)-1-(2,4-dichlorophenyl)-4-methyl-N-(3-(pyrrolidin-1-yl)propyl)-1H-pyrazole-3-carboxamide (12e)]",672
2,"Cc1c(C(=O)NCCCCN2CCCCC2)nn(-c2ccc(Cl)cc2Cl)c1-c1ccc(Cl)cc1 [5-(4-Chlorophenyl)-1-(2,4-dichlorophenyl)-4-methyl-N-(4-(piperidin-1-yl)butyl)-1H-pyrazole-3-carboxamide (12f)]",> 1000
3,"Cc1c(C(=O)NN2CCN(C)CC2)nn(-c2ccc(Cl)cc2Cl)c1-c1ccc(Cl)cc1 [5-(4-Chlorophenyl)-1-(2,4-dichlorophenyl)-4-methyl-N-(4-methylpiperazin-1-yl)-1H-pyrazole-3-carboxamide (12a)]",173
4,"COc1ccc2ccc(CCNC(=O)c3nn(-c4ccc(Cl)cc4Cl)c(-c4ccc(Cl)cc4)c3C)cc2c1 [5-(4-Chlorophenyl)-1-(2,4-dichlorophenyl)-4-methyl-N-[2-(7-methoxynaphthalen-2-yl)ethyl]-1H-pyrazol-3-carboxamide (12g)]",398
5,"Cc1c(C(=O)NCCCN2CCOCC2)nn(-c2ccc(Cl)cc2Cl)c1-c1ccc(Cl)cc1 [5-(4-Chlorophenyl)-1-(2,4-dichlorophenyl)-4-methyl-N-[3-(4-morpholinyl)propyl]-1H-pyrazole-3-carboxamide (12b)]",455
6,"CCN(CC)CCCNC(=O)c1nn(-c2ccc(Cl)cc2Cl)c(-c2ccc(Cl)cc2)c1C [5-(4-Chlorophenyl)-1-(2,4-dichlorophenyl)-4-methyl-N-[3-(N,N-diethylamino)propyl]-1H-pyrazol-3-carboxamide (12c)]",> 1000
7,Cc1c(C(=O)NC2CCC(C)CC2)nn(-c2ccccn2)c1-c1ccc(Cl)cc1 (centres undefined) [5-(4-Chlorophenyl)-4-methyl-1-(pyridin-2-yl)-N-(4-methylcyclohexyl)-1H-pyrazole-3-carboxamide (12j)],612
8,Cc1c(C(=O)NN2CCCCCC2)nn(-c2ccccn2)c1-c1ccc(Cl)cc1 [5-(4-Chlorophenyl)-4-methyl-1-(pyridin-2-yl)-N-(azepan-1-yl)-1H-pyrazole-3-carboxamide (12i)],382
9,Cc1c(C(=O)NN2CCCCC2)nn(-c2ccccn2)c1-c1ccc(Cl)cc1 [5-(4-Chlorophenyl)-4-methyl-1-(pyridin-2-yl)-N-(piperidin-1-yl)-1H-pyrazole-3-carboxamide (12h)],510
10,Cc1c(C(=O)NC2CCC(C)CC2)nn(-c2ccc(C(F)(F)F)cc2)c1-c1ccc(Cl)cc1 (centres undefined) [5-(4-Chlorophenyl)-4-methyl-1-[4-(trifluoromethyl)phenyl]-N-(4-methylcyclohexyl)-1H-pyrazole-3-carboxamide (12m)],79
11,Cc1c(C(=O)NN2CCCCCC2)nn(-c2ccc(C(F)(F)F)cc2)c1-c1ccc(Cl)cc1 [5-(4-Chlorophenyl)-4-methyl-1-[4-(trifluoromethyl)phenyl]-N-(azepan-1-yl)-1H-pyrazole-3-carboxamide (12l)],98.3
12,Cc1c(C(=O)NN2CCCCC2)nn(-c2ccc(C(F)(F)F)cc2)c1-c1ccc(Cl)cc1 [5-(4-Chlorophenyl)-4-methyl-1-[4-(trifluoromethyl)phenyl]-N-(piperidin-1-yl)-1H-pyrazole-3-carboxamide (12k)],93.4
13,"Cc1c(C(=O)NC2CCC(C)CC2)nn(-c2ccc(Cl)cc2Cl)c1-c1ccc(Cl)cc1 (centres undefined) [5-(4-chlorophenyl)-1-(2,4-dichlorophenyl)-4-methyl-N-(4-methylcyclohexyl)-1H-pyrazol-3-carboxamide (12d)]",4.31
14,"Cc1c(CN(CC(=O)O)Cc2nn(-c3ccc(Cl)cc3Cl)c(-c3ccc(Cl)cc3)c2C)nn(-c2ccc(Cl)cc2Cl)c1-c1ccc(Cl)cc1 [[2-Bis-[[5-(4-chlorophenyl)-1-(2,4-dichlorophenyl)-4-methyl-1H-pyrazol-3-yl]methyl]amino] acetic acid (13c)]",516
